This passage reports melting point and IC50 results from patent US20040224958A1, “Pyridopyrimidinone derivatives for treatment of neurodegenerative disease” (priority 2000, published 2004).

Series [1] deals with cdk4/D (Homo sapiens, UniProt P11802). As to the kind of experiment: Cyclin-Dependent Kinase 4 (cdk4) Assay. The series is classed as biochemical. The conditions noted are these: read-out: cdk4/D IC50.
For series [2], the target named is Cdk5/p25 (Homo sapiens, UniProt Q00535). As to the kind of experiment: Cyclin-Dependent Kinase 5 High Throughput Screening (cdk5-HTS) Assay. The series is classed as biochemical. The conditions noted are these: high throughput screen. An outline of the steps: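 Cdk5/p25 (1.0 μg/mL) phosphorylates GST-RbCOOH (20 μg/mL) in 50 mM Tris pH 7.4 with 10 mM MgCl2 and 20 μM ATP spiked with [γ33P]ATP, 30 min at room temperature. After EDTA stop, substrate captured on glutathione-coated plates; 33P incorporation counted by scintillation; IC50 determined.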

Series [3] concerns the target cdk2/cyclinE (Homo sapiens, UniProt P24941). As to the kind of experiment: Cyclin-Dependent Kinase Assay cdk2/cyclinE.
Procedure: Cyclin-Dependent Kinase Assays (cdk2/cyclinE, cdk2/cyclinA, cdc2/cyclinB)
All components except the ATP were added to the wells, and the plate was placed on a plate mixer for 2 minutes. The reaction was begun by addition of [^32P]ATP, and the plate was incubated at 25° C. for 15 minutes. The reaction was terminated by addition of 0.1 mL of 20% TCA. The plate was kept at 4° C. for at least 1 hour to allow the substrate to precipitate. The wells were then washed five times with 0.2 mL of 10% TCA and ^32p incorporation determined with a beta plate counter (Wallac Inc., Gaithersburg, Md.).
In series [4] the target is cdk2/cyclinA (Homo sapiens, UniProt P24941). Kind of series: Cyclin-Dependent Kinase Assay cdk2/cyclinA.
The target of series [5] is cdc2/cyclinB (Homo sapiens, UniProt P06493). As to the kind of experiment: Cyclin-Dependent Kinase Assay cdc2/cyclinB.

Read-outs that look alike come from different tables or passages of the source.

Sequence of cdk4/D (P11802 whole entry): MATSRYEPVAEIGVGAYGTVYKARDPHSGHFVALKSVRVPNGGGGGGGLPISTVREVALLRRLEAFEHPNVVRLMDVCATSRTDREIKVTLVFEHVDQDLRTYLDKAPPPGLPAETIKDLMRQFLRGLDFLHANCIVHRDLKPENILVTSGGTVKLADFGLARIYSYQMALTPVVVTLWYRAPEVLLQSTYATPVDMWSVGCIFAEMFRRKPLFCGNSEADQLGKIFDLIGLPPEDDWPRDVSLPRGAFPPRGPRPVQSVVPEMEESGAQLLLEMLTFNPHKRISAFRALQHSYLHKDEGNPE
Sequence of cdk4/D (P24385 whole entry, further chain): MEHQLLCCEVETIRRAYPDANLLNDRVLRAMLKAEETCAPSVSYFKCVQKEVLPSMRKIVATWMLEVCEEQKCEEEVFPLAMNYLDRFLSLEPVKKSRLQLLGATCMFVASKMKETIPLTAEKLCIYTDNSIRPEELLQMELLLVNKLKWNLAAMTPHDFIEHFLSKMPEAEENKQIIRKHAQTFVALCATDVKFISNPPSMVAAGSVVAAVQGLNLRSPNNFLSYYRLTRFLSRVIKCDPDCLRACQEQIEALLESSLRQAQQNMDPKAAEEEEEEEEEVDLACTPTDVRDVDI
Sequence of cdc2/cyclinB (P06493 whole entry): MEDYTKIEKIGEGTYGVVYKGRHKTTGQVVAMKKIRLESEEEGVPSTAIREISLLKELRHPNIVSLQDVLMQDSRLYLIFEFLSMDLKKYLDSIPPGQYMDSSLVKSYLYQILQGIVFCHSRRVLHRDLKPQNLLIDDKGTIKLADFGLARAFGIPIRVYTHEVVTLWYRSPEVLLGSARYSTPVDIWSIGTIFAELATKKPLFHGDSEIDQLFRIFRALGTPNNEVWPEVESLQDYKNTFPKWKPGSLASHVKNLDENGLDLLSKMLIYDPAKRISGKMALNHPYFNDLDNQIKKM
Sequence of cdc2/cyclinB (P14635 whole entry, further chain): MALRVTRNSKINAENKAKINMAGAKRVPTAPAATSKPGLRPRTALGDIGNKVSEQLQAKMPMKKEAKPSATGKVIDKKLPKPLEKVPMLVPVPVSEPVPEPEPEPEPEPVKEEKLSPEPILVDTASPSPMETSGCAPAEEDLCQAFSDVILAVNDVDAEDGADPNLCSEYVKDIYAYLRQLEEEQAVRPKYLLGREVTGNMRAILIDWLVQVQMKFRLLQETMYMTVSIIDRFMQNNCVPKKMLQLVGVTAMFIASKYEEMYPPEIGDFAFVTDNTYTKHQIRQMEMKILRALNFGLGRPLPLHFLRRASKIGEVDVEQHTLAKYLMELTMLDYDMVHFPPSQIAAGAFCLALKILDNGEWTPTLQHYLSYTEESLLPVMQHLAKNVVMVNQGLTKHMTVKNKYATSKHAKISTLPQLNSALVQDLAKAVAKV

In general, melting point refers to the temperature of the solid-liquid transition. Turning to `CCCn1c(=O)ccc2cnc(Nc3ccccc3)nc21` [Example 41, 2-Phenylamino-8-propyl-8H-pyrido[2,3-d]pyrimidin-7-one], the melting point was in the range of 163 to 164 °C.
In turn, `CC(C)n1c(=O)ccc2cnc(Nc3ccccc3)nc21` [Example 43, 8-Isopropyl-2-phenylamino-8H-pyrido[2,3-d]pyrimidin-7-one] had a melting point of 170 to 171 °C.
For `CCn1c(=O)ccc2cnc(NCc3ccccc3)nc21` [Example 44, 2-Benzylamino-8-ethyl-8H-pyrido[2,3-d]pyrimidin-7-one], the melting point lay in the range of 96 to 97 °C.
`CCn1c(=O)ccc2cnc(NC(C)(C)C)nc21` [Example 46, 2-tert-Butylamino-8-ethyl-8H-pyrido[2,3-d]pyrimidin-7-one]: the melting point was in the range of 103 to 104 °C.
In the case of `CCn1c(=O)ccc2cnc(NC3CCCCC3)nc21` [Example 48, 2-Cyclohexylamino-8-ethyl-8H-pyrido[2,3-d]pyrimidin-7-one], the melting point lay in the range of 135 to 136 °C.
On to `CCn1c(=O)ccc2cnc(Nc3ccc(-c4ccccc4)cc3)nc21` [Example 49, 2-(Biphenyl-4-ylamino)-8-ethyl-8H-pyrido[2,3-d]pyrimidin-7-one], for which the melting point fell in the range of 207 to 208 °C.
`COc1ccc(Cn2c(=O)ccc3cnc(Nc4ccccc4)nc32)cc1` [Example 58, 8-(4-Methoxybenzyl)-2-phenylamino-8H-pyrido[2,3-d]pyrimidin-7-one]: the melting point was in the range of 215 to 216 °C.
In the case of `CCN(CC)CCOc1ccc(Nc2ncc3ccc(=O)n(C(C)C)c3n2)cc1` [Example 59, 2-[4-(2-Diethylaminoethoxy)-phenylamino]-8-isopropyl-8H-pyrido[2,3-d]-pyrimidin-7-one], the melting point is 84 to 85 °C.
With `Cn1c(=O)ccc2cnc(N)nc21` [Example 62, 2-Amino-8-methyl-8H-pyrido[2,3-d]pyrimidin-7-one], the melting point fell in the range of 237 to 253 °C.
On to `Cn1c(=O)ccc2cnc(NCc3ccccc3)nc21` [Example 63, 2-Benzylamino-8-methyl-8H-pyrido[2,3-d]pyrimidin-7-one], for which the melting point lay within 160 to 162 °C.
Same read-out and setting: to `CCCCNc1ncc2ccc(=O)n(C)c2n1` [Example 64, 2-Butylamino-8-methyl-8H-pyrido[2,3-d]pyrimidin-7-one] belongs 146 to 147 °C.
Still for that read-out and setting: to `CCNc1ncc2ccc(=O)n(C)c2n1` [Example 65, 2-Ethylamino-8-methyl-8H-pyrido[2,3-d]pyrimidin-7-one] belongs 194 to 195 °C; to `Cn1c(=O)ccc2cnc(NCCc3ccccn3)nc21` [Example 66, 8-Methyl-2-(2-pyridin-2-yl-ethylamino)-8H-pyrido[2,3-d]pyrimidin-7-one], 155 to 156 °C; to `CCNc1nc(Nc2ccccc2)ncc1CCC(=O)OCC` [Example 68, 3-(4-Ethylamino-2-phenylamino-pyrimidin-5-yl)propionic acid ethyl ester], 106 to 107 °C.
The molecule `CCNc1nc(Nc2ccccc2)ncc1C=CC#N` [Example 72, 3-(4-Ethylamino-2-phenylamino-pyrimidin-5-yl)acrylonitrile] gave a melting point of 244 to 246 °C.
In the case of `CCNc1nc(Nc2ccccc2)ncc1C(C)=CC(=O)OCC` [Example 73, 3-(4-Ethylamino-2-phenylamino-pyrimidin-5-yl)-but-2-enoic acid ethyl ester], the melting point lay in the range of 148 to 150 °C.
`CCN(CC)c1ccc(Nc2ncc3ccc(=O)n(CC)c3n2)cc1` [Example 78, 2-(4-Diethylamino-phenylamino)-8-ethyl-8H-pyrido[2,3-d]pyrimidin-7-one] registered a melting point of 108 to 109 °C.
Take `CCC(C)n1c(=O)ccc2cnc(Nc3ccccc3)nc21` (stereo not shown) [Example 85, 8-sec-Butyl-2-phenylamino-8H-pyrido[2,3-d]pyrimidin-7-one]: the melting point is 155 to 156 °C.
`O=c1ccc2cnc(Nc3ccccc3)nc2n1CCCOc1ccccc1` [Example 87, 8-(3-Phenoxypropyl)-2-phenylamino-8H-pyrido[2,3-d]pyrimidin-7-one]: the melting point was in the range of 175 to 176 °C.
`CCNc1ncc2ccc(=O)n(-c3ccccc3)c2n1` [Example 100, 2-Ethylamino-8-phenyl-8H-pyrido[2,3-d]pyrimidin-7-one] displayed a melting point of 193 to 195 °C.
The molecule `CCn1c(=O)ccc2cnc(Nc3ccc(-n4cccc4)cc3)nc21` [Example 110, 8-Ethyl-2-(4-pyrrol-1-yl-phenylamino)-8H-pyrido[2,3-d]pyrimidin-7-one] had a melting point of 220 to 222 °C.
Regarding `CC(C)n1c(=O)ccc2cnc(Nc3ccc(O)cc3)nc21` [Example 112, 2-(4-Hydroxy-phenylamino)-8-isopropyl-8H-pyrido[2,3-d]pyrimidin-7-one], the melting point lay in the range of 226 to 228 °C.
Same read-out and setting: to `CN1CCN(c2ccc(Nc3ncc4ccc(=O)n(-c5ccccc5)c4n3)cc2)CC1` [Example 113, 2-[4-(4-Methyl-piperazin-1-yl)-phenylamino]-8-phenyl-8H-pyrido[2,3-d]pyrimidin-7-one] belongs 259 to 262 °C.
The molecule `CN1CCN(c2ccc(Nc3ncc4ccc(=O)n(CCCOCc5ccccc5)c4n3)cc2)CC1` [Example 115, 8-(3-Benzyloxy-propyl)-2-[4-(4-methyl-piperazin-1-yl)-phenylamino]-8H-pyrido[2,3-d]pyrimidin-7-one] yielded a melting point of 148 to 150 °C.
On to `CCN(CC)CCOc1ccc(Nc2ncc3ccc(=O)n(CCCOCc4ccccc4)c3n2)cc1` [Example 116, 8-(3-Benzyloxy-propyl)-2-[4-(2-diethylamino-ethoxy)-phenylamino]-8H-pyrido[2,3-d]pyrimidin-7-one], for which the melting point lay in the range of 70 to 72 °C.
Still for that read-out and setting: to `CC(C)n1c(=O)ccc2cnc(Nc3ccc(OCCN4CCOCC4)cc3)nc21` [Example 141, 8-Isopropyl-2-[4-(2-morpholin-4-yl-ethoxy)-phenylamino]-8H-pyrido[2,3-d]pyrimidin-7-one] belongs 118 to 119 °C; to `O=c1ccc2cnc(Nc3ccc(N4CCCCC4)cc3)nc2n1C1CCCCC1` [Example 142, 8-Cyclohexyl-2-(4-piperidin-1-yl-phenylamino)-8H-pyrido[2,3-d]pyrimidin-7-one], 198 to 200 °C; to `CC1CN(c2ccc(Nc3ncc4ccc(=O)n(C5CCCCC5)c4n3)cc2)CC(C)N1CCO` (stereo not shown) [Example 143, 8-Cyclohexyl-2-{4-[4-(2-hydroxy-ethyl)-3,5-dimethyl-piperazin-1-yl]-phenylamino}-8H-pyrido[2,3-d]pyrimidin-7-one], 175 to 177 °C.
Regarding `CCN(CC)CCOc1ccc(Nc2ncc3ccc(=O)n(C4CCCCC4)c3n2)cc1C` [Example 150, 8-Cyclohexyl-2-[4-(2-diethylamino-ethoxy)-3-methyl-phenylamino]-8H-pyrido[2,3-d]pyrimidin-7-one], the melting point was in the range of 119 to 121 °C.
With `O=c1ccc2cnc(NC3CCCCC3)nc2n1C1CCCCC1` [Example 153, 8-Cyclohexyl-2-cyclohexylamino-8H-pyrido[2,3-d]pyrimidin-7-one], the melting point lay in the range of 169 to 170 °C.
As for `O=c1ccc2cnc(Nc3ccccc3)nc2n1C1CCCCCC1` [Example 155, 8-Cycloheptyl-2-phenylamino-8H-pyrido[2,3-d]pyrimidin-7-one], the melting point fell in the range of 156 to 158 °C.
The molecule `CCN(CC)CCOc1ccc(Nc2ncc3ccc(=O)n(C4CCCCCC4)c3n2)cc1` [Example 156, 8-Cycloheptyl-2-[4-(2-diethylamino-ethoxy)-phenylamino]-8H-pyrido[2,3-d]pyrimidin-7-one] registered a melting point of 121 to 122 °C.
On the same count and under the same terms, to `O=c1ccc2cnc(Nc3ccc(N4CCCCC4)cc3)nc2n1CCCOC1CCCCO1` (stereo not shown) [Example 158] belongs 85 to 86 °C; to `CC(C)(C)OC(=O)C1CCCN1c1ccc(Nc2ncc3ccc(=O)n(C4CCCCC4)c3n2)cc1` (stereo not shown) [Example 170, 1-[4-(8-Cyclohexyl-7-oxo-7,8-dihydro-pyrido[2,3-d]pyrimidin-2-ylamino)-phenyl]-pyrrolidine-2-carboxylic acid tert-butyl ester], 144 to 145 °C; to `O=c1ccc2cnc(Nc3ccc(N4CCSCC4)cc3)nc2n1C1CCCCC1` [Example 177, 8-Cyclohexyl-2-(4-thiomorpholin-4-yl-phenylamino)-8H-pyrido[2,3-d]pyrimidin-7-one], 213 to 214 °C.
With `O=c1ccc2cnc(Nc3ccccc3)nc2n1C1CC2CCC1C2` (stereo not shown) [Example 180, 8-Bicyclo[2.2.1]hept-2-yl-2-phenylamino-8H-pyrido[2,3-d]pyrimidin-7-one], the melting point was 225 to 226 °C.
Consider `CCn1c(=O)ccc2cnc(Nc3ccc4[nH]ccc4c3)nc21` [Example 621, 8-Ethyl-2-(1H-indol-5-ylamino)-8H-pyrido[2,3-d]pyrimidin-7-one], for which the IC50 in series [1] came out at 230 nM; in series [2], 250 nM; in series [3] (cdk2/E IC50), 400 nM; in series [4] (cdk2/A IC50), 925 nM; in series [5], 540 nM.
As for “[4-(7-Oxo-8-propyl-7,8-dihydro-pyrido[2,3-d]pyrimidin-2-ylamino)-phenyl]-carbamic acid tert-butyl ester [Example 326]”, the IC50 amounted to 2100 nM in series [1]; 460 nM in series [2]; 820 nM in series [3] (read-out: cdk2/E IC50); 2450 nM in series [4] (read-out: cdk2/A IC50); 995 nM in series [5] (read-out: cdk1/B IC50).
